Values of other authors as cited in US20240091148A1, “EUTECTIC SOLVENTS COMPRISING PHARMACEUTICAL AGENTS, AND METHODS OF MAKING AND USE THEREOF” (Novilla Pharmaceuticals, Inc., priority 2018, published 2024).

Conditions: values stated in the description, no method or source given
For `C[C@H]1C[C@H]2[C@@H]3CCC4=CC(=O)C=C[C@]4(C)[C@@]3(Cl)[C@@H](O)C[C@]2(C)[C@@]1(O)C(=O)CO` [beclomethasone], the pKa is listed as 13-16.
For `CC(C)C(=O)OCC(=O)[C@@]12O[C@H](C3CCCCC3)O[C@@H]1C[C@H]1[C@@H]3CCC4=CC(=O)C=C[C@]4(C)[C@H]3[C@@H](O)C[C@@]12C` [ciclesonide], the pKa is listed as 14-16.
In the case of `C[C@@H]1C[C@H]2[C@@H]3C[C@H](F)C4=CC(=O)C=C[C@]4(C)[C@@]3(F)[C@@H](O)C[C@]2(C)[C@@]1(O)C(=O)SCF` [fluticasone], the pKa is listed as 12-14.
In the case of `C[C@@H]1C[C@H]2[C@@H]3CCC4=CC(=O)C=C[C@]4(C)[C@@]3(Cl)[C@@H](O)C[C@]2(C)[C@@]1(O)C(=O)CCl` [mometasone], the pKa is listed as 12-13.
For `CN(C)CCOC(C)(c1ccccc1)c1ccccn1` (stereo not drawn) [doxylamine], the pKa is listed as 8.7-9.2.
For `CCCC1O[C@@H]2C[C@H]3[C@@H]4CCC5=CC(=O)C=C[C@]5(C)[C@H]4[C@@H](O)C[C@]3(C)[C@]2(C(=O)CO)O1` (stereo partly drawn) [budesonide], the pKa is given as 13-15.
